Data: article PMC11823630, “In vitro potentiation of tetracyclines in Pseudomonas aeruginosa by RW01, a new cyclic peptide” (Antimicrobial Agents and Chemotherapy, 2024)
≈ marks a conversion by molar mass, not a printed value. Like-named read-outs stand apart in the source and are kept apart here.

Columns and labels:
[1] = test system: PAO1 mutant MIN1_RW01_4, pmrB(F124L); assay: MIC, E-test on MHA; assay type: cell-based; details: Pseudomonas aeruginosa, PAO1, read-out: MIC, E-test
[2] = test system: P. aeruginosa PAO1; assay: Checkerboard assay with RW01; assay type: cell-based, Pseudomonas aeruginosa
Method: (§1) To assess the in vitro interaction between RW01 and tetracyclines, the checkerboard assay method was performed in 96-well microtiter plates using strains PAO1 and PAOUW. In the same way as for MIC determination, BD Phoenix AST Broth (Becton Dickinson) medium was used for bacterial growth. Minocycline and tigecycline combined with RW01 were the agents selected for the assay. A column and a row of wells in the checkerboard plate were reserved for controls of each antimicrobial individually to ensure the proper concentration of the agents. Positive and negative controls were also included. Wells in rows contained serial dilutions of RW01 starting from 512 mg/L, while those in columns varied in concentrations of the antibiotic. Inoculum at ~5 × 10⁵ CFU/mL, antibiotic, RW01, and AST broth were added to a final volume of 200 µL. Plates were incubated at 37°C for 18–22 h under aerobic conditions. Three biological replicates were obtained. Fractional inhibitory concentration index (FICI) is defined as the summatory of fractional inhibitory concentrations (FICs) from compound A: RW01, and compound B: minocycline/tigecycline. FICs were calculated as:
(§2) FIC of RW01 (FICRW01)=MIC of RW01 in combination/MIC of RW01 alone,FIC of antibiotic (FICATB)=MIC of ATB in combination/MIC of ATB alone,FICI=FICRW01 +FICATB.
(§3) FICI was interpreted as follows: synergistic effect if FICI is ≤0.5; additive effect if 0.5 < FICI ≤ 1.0; indifferent effect if 1.0 < FICI ≤ 2.0; and finally, antagonistic effect if FICI is >2.0. The average FICI considering the antibiotic MIC (no growth in any of the replicates) at different concentrations of RW01 was calculated ([28]).

[3] = test system: P. aeruginosa PAOUW; assay: Checkerboard assay with RW01; assay type: cell-based, Pseudomonas aeruginosa
Method: as §1, §2, §3

[4] = test system: PAO1 mutant MIN8_4, pilZ(nt18InsT); assay: MIC, E-test on MHA; assay type: cell-based; details: Pseudomonas aeruginosa, PAO1, read-out: MIC, E-test
[5] = test system: PAO1 mutant MIN4_RW01_4, pmrB(Y98N); assay: MIC, E-test on MHA; assay type: cell-based; details: Pseudomonas aeruginosa, PAO1, read-out: MIC, E-test
[6] = test system: P. aeruginosa PAOΔmexR; assay: MIC, CLSI broth microdilution in BD Phoenix AST Broth; assay type: cell-based, Pseudomonas aeruginosa; details: strain PAOΔmexR
[7] = test system: P. aeruginosa 41B; assay: as above; assay type: cell-based, Pseudomonas aeruginosa; details: strain 41B
[8] = test system: P. aeruginosa PAOUW∆oprF; assay: as above; assay type: cell-based, Pseudomonas aeruginosa
[9] = test system: P. aeruginosa PAOΔmexZ; assay: as above; assay type: cell-based, Pseudomonas aeruginosa; details: strain PAOΔmexZ; for MIC: agent alone, 37°C, 18–22 h, three biological replicates
[10] = test system: P. aeruginosa PAOΔoprM; assay: as above; assay type: cell-based, Pseudomonas aeruginosa
[11] = test system: P. aeruginosa PAO1; assay: as above; assay type: cell-based, Pseudomonas aeruginosa; details: for MIC: Pseudomonas aeruginosa
[12] = test system: P. aeruginosa PAOUW; assay: as above; assay type: cell-based, Pseudomonas aeruginosa; details: strain PAOUW; for MIC: agent alone, 37°C, 18–22 h, three biological replicates
[13] = test system: P. aeruginosa 125B; assay: as above; assay type: cell-based, Pseudomonas aeruginosa; details: strain 125B
[14] = test system: P. aeruginosa 125A; assay: as above; assay type: cell-based, Pseudomonas aeruginosa; details: strain 125A
[15] = test system: P. aeruginosa 41A; assay: as above; assay type: cell-based, Pseudomonas aeruginosa; details: strain 41A
[16] = test system: PAO1 mutant MIN32_1, mexR(R63H), pilB(N349K), PA0646(V316G); assay: MIC, E-test on MHA; assay type: cell-based; details: Pseudomonas aeruginosa, PAO1, read-out: MIC, E-test
[17] = test system: PAO1 mutant MIN16_1, nalD(T43P); assay: MIC, E-test on MHA; assay type: cell-based; details: Pseudomonas aeruginosa, PAO1, read-out: MIC, E-test
[18] = test system: PAO1 mutant MIN1_RW01_3, pmrB(V215L); assay: MIC, E-test on MHA; assay type: cell-based; details: Pseudomonas aeruginosa, PAO1, read-out: MIC, E-test
[19] = antibiotic combined with RW01, checkerboard, AST broth, 37°C, 18–22 h, three biological replicates
[20] = MIC of the antibiotic with fixed 100 mg/L RW01
[21] = antibiotic MIC alone vs with RW01 100 mg/L
[22] = antibiotic with RW01 at 100 mg/L
[23] = Pseudomonas aeruginosa, agent alone, 37°C, 18–22 h, three biological replicates
[24] = strain PAOUWΔoprF (printed PAOΔoprF), antibiotic with RW01 at 100 mg/L
[25] = strain PAOΔoprM, antibiotic with RW01 at 100 mg/L
[26] = strain PAO1, antibiotic with RW01 at 100 mg/L

In the case of `CN(C)c1cc(NC(=O)CNC(C)(C)C)c(O)c2c1C[C@H]1C[C@H]3[C@H](N(C)C)C(O)=C(C(N)=O)C(=O)[C@@]3(O)C(O)=C1C2=O` [Tigecycline, tigecycline], the MIC [1] is reported as 24 µg/mL (≈ 41 µM), the “interaction with RW01 (checkerboard)” value [2] is reported as “additive” and the “average FIC Index” value [2, 19] is reported as 0.677. The “interaction with RW01 (checkerboard)” value [3] was “synergistic”, the “average FIC Index” value [3, 19] was 0.446 and the MIC [4] was 32 µg/mL (≈ 54.6 µM). For the same compound, the MIC [5] was 32 µg/mL (≈ 54.6 µM), the “Antibiotic MIC + RW01 100 mg/L” value [6, 20] was 1 µg/mL and the “Potentiation (fold)” value [6, 21] was 8 fold. The FICI [6, 22] was 0.223, the FICI-determined effect [6, 22] was “Synergy (synergistic effect if FICI is ≤0.5)” and the MIC [7, 23] was 8 µg/mL. For the same compound, the “Antibiotic MIC + RW01 100 mg/L” value [7, 20] was 2 µg/mL, the “Potentiation (fold)” value [7, 21] was 4 fold and the FICI [7, 22] was 0.348. The FICI-determined effect [7, 22] was “Synergy (synergistic effect if FICI is ≤0.5)”, the “Potentiation (fold)” value ([8]; strain PAOUWΔoprF (printed PAOΔoprF), antibiotic MIC alone vs with RW01 100 mg/L) was 8 fold and the FICI [8, 24] was 0.223. The FICI-determined effect [8, 24] was “Synergy (synergistic effect if FICI is ≤0.5)”, the MIC ([8]; strain PAOUWΔoprF, agent alone, 37°C, 18–22 h, three biological replicates) was 16 µg/mL and the MIC ([9]; Pseudomonas aeruginosa) was 16 µg/mL. The MIC [9] was 8 µg/mL, the “Potentiation (fold)” value [9, 21] was 8 fold and the FICI [9, 22] was 0.223. The FICI-determined effect [9, 22] was “Synergy (synergistic effect if FICI is ≤0.5)”, the MIC ([10]; Pseudomonas aeruginosa) was 1 µg/mL and the “Antibiotic MIC + RW01 100 mg/L” value ([10]; strain PAOΔoprM, MIC of the antibiotic with fixed 100 mg/L RW01) was 1 µg/mL. The “Potentiation (fold)” value ([10]; strain PAOΔoprM, antibiotic MIC alone vs with RW01 100 mg/L) was 1 fold, the FICI [10, 25] was 1.098 and the FICI-determined effect [10, 25] was “Indifference (indifferent effect if 1.0 < FICI ≤ 2.0)”. The MIC ([11]; PAO1) was 8 µg/mL, the MIC ([11]; PAO1, strain PAO1, agent alone, 37°C, 18–22 h, three biological replicates, read-out: MIC) was 2 µg/mL and the “Antibiotic MIC + RW01 100 mg/L” value ([11]; strain PAO1, MIC of the antibiotic with fixed 100 mg/L RW01) was 2 µg/mL. For the same compound, the “Potentiation (fold)” value ([11]; strain PAO1, antibiotic MIC alone vs with RW01 100 mg/L) was 4 fold, the FICI [11, 26] was 0.445 and the FICI-determined effect [11, 26] was “Synergy (synergistic effect if FICI is ≤0.5)”. For the same compound, the MIC ([12]; Pseudomonas aeruginosa, read-out: MIC) was 8 µg/mL, the “Antibiotic MIC + RW01 100 mg/L” value [12, 20] was 1 µg/mL and the MIC [12] was 4 µg/mL. The “Potentiation (fold)” value [12, 21] was 4 fold, the FICI [12, 22] was 0.348 and the FICI-determined effect [12, 22] was “Synergy (synergistic effect if FICI is ≤0.5)”. The MIC [13, 23] was 8 µg/mL, the “Antibiotic MIC + RW01 100 mg/L” value [13, 20] was 1 µg/mL and the “Potentiation (fold)” value [13, 21] was 8 fold. The FICI [13, 22] was 0.320, the FICI-determined effect [13, 22] was “Synergy (synergistic effect if FICI is ≤0.5)” and the MIC [14, 23] was 8 µg/mL. For the same compound, the “Antibiotic MIC + RW01 100 mg/L” value [14, 20] was 1 µg/mL, the “Potentiation (fold)” value [14, 21] was 8 fold and the FICI [14, 22] was 0.320. For the same compound, the FICI-determined effect [14, 22] was “Synergy (synergistic effect if FICI is ≤0.5)”, the MIC [15, 23] was 8 µg/mL and the “Antibiotic MIC + RW01 100 mg/L” value [15, 20] was 2 µg/mL. The “Potentiation (fold)” value [15, 21] was 4 fold, the FICI [15, 22] was 0.348 and the FICI-determined effect [15, 22] was “Synergy (synergistic effect if FICI is ≤0.5)”. It also gave an MIC [16] of 24 µg/mL (≈ 41 µM), an MIC [17] of 16 µg/mL (≈ 27.3 µM) and an MIC [18] of 16 µg/mL (≈ 27.3 µM).
